Source: ChEMBL document CHEMBL3046328, “Ligand-based pharmacophore detection, screening of potential pharmacophore and docking studies, to get effective glycogen synthase kinase inhibitors” (Med Chem Res, 2013)

Legend:
[1] = target: Mitogen-activated protein kinase 1 (Homo sapiens, UniProt P28482); assay: Inhibition of ERK2 (unknown origin)
[2] = target: T1, Aurora kinase A (Homo sapiens, UniProt O14965); assay: Inhibition of Aurora2 (unknown origin)
T1 sequence (O14965 whole entry): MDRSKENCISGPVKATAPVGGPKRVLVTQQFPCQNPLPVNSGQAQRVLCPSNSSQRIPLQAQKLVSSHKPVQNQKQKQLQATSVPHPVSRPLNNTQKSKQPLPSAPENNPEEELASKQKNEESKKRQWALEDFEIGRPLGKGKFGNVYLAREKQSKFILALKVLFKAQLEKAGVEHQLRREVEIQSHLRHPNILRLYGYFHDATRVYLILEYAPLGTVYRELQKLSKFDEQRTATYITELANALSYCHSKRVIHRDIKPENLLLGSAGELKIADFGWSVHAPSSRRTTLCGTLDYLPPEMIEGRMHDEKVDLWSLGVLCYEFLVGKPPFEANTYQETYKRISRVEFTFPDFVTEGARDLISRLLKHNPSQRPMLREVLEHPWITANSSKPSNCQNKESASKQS

[3] = target: T2, Glycogen synthase kinase-3 (Homo sapiens, UniProt P49840+P49841); assay: Inhibition of GSK3 (unknown origin) at 1 uM; type: protein assay
[4] = target: T2, Glycogen synthase kinase-3; assay: Inhibition of GSK3 (unknown origin); type: protein assay
[5] = target: Glycogen synthase kinase-3 beta (Homo sapiens, UniProt P49841); assay: Inhibition of GSK3beta (unknown origin)
[6] = target: Proto-oncogene tyrosine-protein kinase Src (Homo sapiens, UniProt P12931); assay: Inhibition of SRC (unknown origin)
Chain of Proto-oncogene tyrosine-protein kinase Src (P12931 2-536 limits assumed): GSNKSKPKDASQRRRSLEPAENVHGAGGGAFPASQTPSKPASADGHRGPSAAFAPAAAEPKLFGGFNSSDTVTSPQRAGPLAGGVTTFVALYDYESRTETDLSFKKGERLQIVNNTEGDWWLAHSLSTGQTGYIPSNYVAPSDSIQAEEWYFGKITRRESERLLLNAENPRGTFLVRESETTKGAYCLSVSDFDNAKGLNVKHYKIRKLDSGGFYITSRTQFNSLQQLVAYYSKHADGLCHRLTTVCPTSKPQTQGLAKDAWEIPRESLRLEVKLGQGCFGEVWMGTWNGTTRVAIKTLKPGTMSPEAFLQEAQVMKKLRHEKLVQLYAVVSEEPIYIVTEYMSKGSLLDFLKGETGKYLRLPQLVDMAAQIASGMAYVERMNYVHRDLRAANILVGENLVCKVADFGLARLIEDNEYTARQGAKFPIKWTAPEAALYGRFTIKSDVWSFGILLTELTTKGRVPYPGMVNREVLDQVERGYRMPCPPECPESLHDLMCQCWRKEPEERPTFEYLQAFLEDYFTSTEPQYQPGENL

Chain of Mitogen-activated protein kinase 1 (P28482 whole entry): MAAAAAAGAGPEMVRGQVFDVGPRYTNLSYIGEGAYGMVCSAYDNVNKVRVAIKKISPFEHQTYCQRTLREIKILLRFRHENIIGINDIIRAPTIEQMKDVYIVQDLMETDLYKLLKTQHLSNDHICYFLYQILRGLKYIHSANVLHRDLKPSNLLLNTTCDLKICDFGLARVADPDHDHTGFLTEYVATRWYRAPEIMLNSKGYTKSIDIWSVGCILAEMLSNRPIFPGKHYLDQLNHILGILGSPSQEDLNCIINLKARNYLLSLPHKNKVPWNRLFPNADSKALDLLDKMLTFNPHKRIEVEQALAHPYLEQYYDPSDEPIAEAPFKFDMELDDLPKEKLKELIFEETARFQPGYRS
T2 sequence (P49840 whole entry, looked up): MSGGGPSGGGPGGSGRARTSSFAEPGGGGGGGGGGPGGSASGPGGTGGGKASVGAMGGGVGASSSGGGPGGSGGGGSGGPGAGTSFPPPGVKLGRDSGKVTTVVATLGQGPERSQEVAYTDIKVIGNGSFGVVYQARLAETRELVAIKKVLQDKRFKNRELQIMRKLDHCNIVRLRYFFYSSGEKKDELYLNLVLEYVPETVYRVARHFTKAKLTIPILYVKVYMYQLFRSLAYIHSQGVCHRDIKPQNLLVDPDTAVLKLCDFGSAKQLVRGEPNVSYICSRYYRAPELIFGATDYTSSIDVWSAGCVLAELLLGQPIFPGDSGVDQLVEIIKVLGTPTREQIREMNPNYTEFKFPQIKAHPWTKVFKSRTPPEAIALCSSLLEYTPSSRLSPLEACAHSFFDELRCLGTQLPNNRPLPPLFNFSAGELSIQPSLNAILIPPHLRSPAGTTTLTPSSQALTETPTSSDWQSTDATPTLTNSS
T2 sequence (P49841 whole entry, looked up): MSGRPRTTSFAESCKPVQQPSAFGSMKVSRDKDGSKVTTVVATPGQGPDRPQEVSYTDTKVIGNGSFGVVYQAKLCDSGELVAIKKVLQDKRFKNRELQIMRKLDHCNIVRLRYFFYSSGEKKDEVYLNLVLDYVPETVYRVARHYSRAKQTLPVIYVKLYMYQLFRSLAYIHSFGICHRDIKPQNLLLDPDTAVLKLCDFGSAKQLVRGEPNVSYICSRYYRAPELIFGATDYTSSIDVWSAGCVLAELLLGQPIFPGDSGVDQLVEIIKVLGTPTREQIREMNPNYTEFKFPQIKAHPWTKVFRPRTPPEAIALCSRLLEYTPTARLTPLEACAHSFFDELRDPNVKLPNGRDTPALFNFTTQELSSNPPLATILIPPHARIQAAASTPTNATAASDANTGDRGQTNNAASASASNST
Chain of Glycogen synthase kinase-3 beta (P49841 whole entry): as the sequence (P49841 whole entry, looked up) above

SMILES | Ki [1] [mM] | IC50 [4] [µM] | Ki [6] [nM] | Ki [4] [mM] | Ki [2] [µM] | also measured
CCSc1nc2c([nH]1)[nH]c1ccccc12 |  |  |  |  |  | inhibition [3]: 63%
CCN(Cc1cn2cccc(C)c2n1)Cc1nc2ccccc2c(=O)[nH]1 |  | < 10 |  |  |  | 
CCN(CC)CCCNc1nc2ccccc2c2[nH]c3ccc(OC)cc3c12 |  | 1 |  |  |  | 
Cc1ccc(-c2c[nH]c(C3COCCN3Cc3c[nH]c4ccccc34)n2)cc1 (stereo not given) |  |  |  |  |  | IC50 [5]: 120 nM
Cc1cccn2cc(CN(Cc3nc4ccccc4c(=O)[nH]3)C(C)C)nc12 | 1 |  | < 100 | < 0.1 | < 100 | 

More lines, main results first:

Ki [1] [mM] | IC50 [4] [µM] | Ki [6] [nM] | Ki [4] [mM] | Ki [2] [µM] | SMILES | also measured
< 0.001 |  |  |  |  | O=[N+]([O-])c1ccc2c(c1)[n+]([O-])c1c3ccccc3[nH]c1[n+]2[O-] | IC50 [2]: < 5 µM
 | 1 |  |  |  | O=C(N=c1[nH]c2ccccc2[nH]1)NC[C@H]1CCC[C@@H](CNC(=O)N=c2[nH]c3ccccc3[nH]2)C1 | 
 | 1 |  |  |  | C[n+]1c2ccccc2[n+]2[nH]c3ccccc3n12 | 
1 |  | < 100 | < 0.1 | < 100 | Cc1nc[nH]c1[C@@H]1c2nc[nH]c2CCN1Cc1nc2ccccc2[nH]1 | 
1 |  | < 100 | < 0.1 | < 100 | Cc1nc[nH]c1[C@H]1c2nc[nH]c2CCN1Cc1nc2ccccc2[nH]1 | 
